Source: paper PMC8800111 (The Journal of Biological Chemistry, 2021)

Target: proteins of U3A human fibrosarcoma cells (4462 proteins detected) (Homo sapiens, UniProt Q9UMS4)
Format: cell-based
Details: protein PRPF19; U3A cells

proteins of U3A human fibrosarcoma cells (4462 proteins detected), sequence (Q9UMS4 whole entry): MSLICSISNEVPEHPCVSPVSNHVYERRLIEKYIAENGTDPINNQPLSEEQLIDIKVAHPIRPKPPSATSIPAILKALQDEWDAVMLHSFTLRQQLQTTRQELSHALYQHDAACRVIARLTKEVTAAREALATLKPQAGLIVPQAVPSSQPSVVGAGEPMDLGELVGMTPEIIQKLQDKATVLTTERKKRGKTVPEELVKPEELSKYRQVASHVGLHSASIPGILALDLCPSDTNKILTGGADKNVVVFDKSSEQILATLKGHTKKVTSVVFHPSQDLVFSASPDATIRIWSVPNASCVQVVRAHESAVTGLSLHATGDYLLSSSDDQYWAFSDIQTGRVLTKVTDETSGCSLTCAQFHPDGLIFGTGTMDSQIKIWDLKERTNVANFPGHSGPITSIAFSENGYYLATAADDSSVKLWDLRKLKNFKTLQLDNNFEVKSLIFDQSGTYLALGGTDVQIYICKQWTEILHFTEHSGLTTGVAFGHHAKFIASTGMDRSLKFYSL

SMILES: CCc1nc(N)nc(N)c1-c1ccc(Cl)cc1 [pyrimethamine]
- Log2 (PYR/DMSO): 0.17
